What all share (type): cell-based
For one test, the target named is T1, human GIPR (Homo sapiens, UniProt P48546).
T1 construct: Plasmids encoding full length, wild-type human or mouse GLP-1R, GIPR or glucagon receptor (GCGR) in the pcDNA5/FRT vector; host or cells: AD-293
T1 sequence (P48546 22-466): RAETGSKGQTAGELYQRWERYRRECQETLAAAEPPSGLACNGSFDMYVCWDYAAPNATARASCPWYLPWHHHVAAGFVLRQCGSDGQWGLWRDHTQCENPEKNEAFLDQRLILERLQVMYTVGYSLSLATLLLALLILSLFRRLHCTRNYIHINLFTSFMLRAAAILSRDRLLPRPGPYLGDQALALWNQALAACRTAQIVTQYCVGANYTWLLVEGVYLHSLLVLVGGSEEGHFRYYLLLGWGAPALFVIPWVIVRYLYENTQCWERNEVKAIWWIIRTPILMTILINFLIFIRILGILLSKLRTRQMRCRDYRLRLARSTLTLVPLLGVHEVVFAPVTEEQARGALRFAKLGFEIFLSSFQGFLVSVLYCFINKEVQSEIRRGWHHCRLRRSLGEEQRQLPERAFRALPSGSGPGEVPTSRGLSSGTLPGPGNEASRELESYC
As to the kind of experiment: HTRF cAMP assay in transiently transfected AD-293 cells. The following applies: 30 min stimulation, n = 3–5. As for the experimental part: (§1) AD-293 cells were transfected with desired plasmid DNA 24 h prior to cAMP quantification using the cAMP-Gs Dynamic 2 kit (Cisbio, France), as per manufacturer's protocol. Full details are provided in the supplementary methods.
(§2) AD-293 cells were added to a 12-well plate and maintained in 2 ml complete DMEM. 1 μg of specified plasmid DNA was added to each well alongside Lipofectamine 2000 (Thermo Fisher, UK). cAMP production was quantified 24 hours following transfection using homogenous time resolved fluorescence (HTRF), specifically the cAMP-Gs Dynamic 2 kit (Cisbio, France). Peptides and cells were diluted in DMEM + 1% P/S + 0.1% BSA. For peptide stability testing, cells, fresh peptide and peptide incubated with dispersed islet cells were diluted in RPMI-1640 (Thermo Fisher, UK) + 10% FBS + 1% P/S. 10 μl of peptide and 10 μl of cell suspension were added in duplicate to an opaque 96-well plate (Grenier Bio-One, Austria) and incubated at 37°C for 30 minutes. 10 μl of cAMP-d2 and anti-cAMP cryptate, both diluted in lysis buffer, were added in quick succession as per the manufacturer’s protocol. The plates were then incubated at room temperature for 45 minutes and read using the SpectraMax i3x (Molecular Devices, US).
Background: TR-FRET usually uses a lanthanide donor and a delayed reading to cut background.

The subject of a further test is mouse GIPR. The test is described as above. Conditions: 30 min stimulation, n = 3–5. The method, then: as §1, §2
In a further test the target is T2, GIPR (Mus musculus, UniProt Q0P543).
T2 construct: from tissue; host or cells: dispersed pancreatic islets of C57BL/6J, CAMPER Pdx1-CreERT2 and CAMPER Som-Cre mice
T2 sequence (Q0P543 19-460): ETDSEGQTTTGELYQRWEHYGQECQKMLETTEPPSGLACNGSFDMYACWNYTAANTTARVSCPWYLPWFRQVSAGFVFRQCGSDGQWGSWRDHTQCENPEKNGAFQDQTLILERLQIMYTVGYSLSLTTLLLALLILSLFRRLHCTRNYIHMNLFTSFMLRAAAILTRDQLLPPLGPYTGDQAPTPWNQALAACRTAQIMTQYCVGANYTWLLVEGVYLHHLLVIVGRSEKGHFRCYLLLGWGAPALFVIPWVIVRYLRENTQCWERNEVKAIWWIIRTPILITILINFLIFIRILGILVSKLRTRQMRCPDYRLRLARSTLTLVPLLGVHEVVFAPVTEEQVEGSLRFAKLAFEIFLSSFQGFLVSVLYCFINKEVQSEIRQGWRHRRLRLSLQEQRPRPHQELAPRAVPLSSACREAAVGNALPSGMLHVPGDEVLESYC
As to the kind of experiment: Ex vivo islet GIPR desensitisation (pre-treat/washout/rechallenge cAMP). The following applies: for rechallenge cAMP response after 24-hour pre-treatment: cADDis. As for the experimental part: Primary cultures of mouse hypothalamic neurons and dispersed pancreatic islets were transduced with the Green Up cADDis biosensor (Montana Molecular, US). Pancreatic islets from CAMPER^Pdx−1-CreERT2 and CAMPER^Som-Cre mice were not transduced. Cells were pre-treated with peptides as specified, dissolved in culture media. Following 4 h or overnight incubation and a 1-hour washout period, cells were imaged using an epifluorescence microscope at baseline (t = 3 min), following peptide addition (t = 10 min, unless specified otherwise), and following 3-isobutyl-1-methylxanthine (IBMX) (500 μM) and forskolin (FSK) (50 μM) addition (t = 3 min) to maximally stimulate the sensor. In pre-treatment experiments, islet cell fluorescence was normalised to the IBMX/FSK response which was set as 100%. In non-pre-treatment experiments, islet and neuronal cell fluorescence was normalised to both the baseline and IBMX/FSK response. The area-under-the-curve (AUC) for each cell was quantified. Full details of isolation, transduction, plating, imaging and image analysis is provided in the supplementary methods.
During this treatment, peptides were dissolved in islet culture media. Prior to imaging, the peptide washout period was 1 hour in Krebs buffer with 6 mM glucose and 0.1% BSA.
Cells were imaged in Krebs buffer with 6 mM glucose and 0.1% BSA (unless 10% FBS was specified) at 37°C using an automated epifluorescence microscope (modified Nikon Ti-2E with LED illumination). Multiple fields of view (FOV) were imaged in parallel (for islets, multiple wells of a 96 well plate were imaged in parallel), allowing hundreds to thousands of cells to be imaged every minute throughout the time course. For all acquisitions, the first three minutes were baseline recording pre-peptide addition and the last three minutes were a positive control following IBMX (500 μM) and forskolin (50 μM) addition to maximally stimulate the sensor.
Cells were imaged in a similar setup described in the previous paragraph. However, an image spitter (OptoSplit III, Cairn Research Ltd, UK) was used to enable simultaneous acquisition of cyan fluorescent protein (CFP) and yellow fluorescent protein (YFP) emission. cAMP was quantified based on the YFP/CFP FRET ratio from each cell.
cAMP quantification from the raw islet/neuronal images was performed using Fiji v1.54f (NIH). […] The fluorescence intensity of each ROI was measured at each time point. In pre-treatment experiments, islet cell fluorescence was normalised to the maximal IBMX/FSK response which was set as 100%. For non-pre-treatment experiments, neuronal and islet cell fluorescence were normalised to both the baseline and maximal IBMX/FSK response. The AUC during peptide stimulation for each cell was quantified. […]

`CC[C@H](C)[C@H](NC(=O)[C@H](CO)NC(=O)[C@H](Cc1ccc(O)cc1)NC(=O)[C@H](CC(=O)O)NC(=O)[C@H](CO)NC(=O)[C@@H](NC(=O)[C@H](Cc1ccccc1)NC(=O)[C@@H](NC(=O)CNC(=O)[C@H](CCC(=O)O)NC(=O)C(C)(C)NC(=O)[C@@H](N)Cc1ccc(O)cc1)[C@@H](C)O)[C@@H](C)CC)C(=O)N[C@@H](C)C(=O)N[C@@H](CC(C)C)C(=O)N[C@@H](CC(=O)O)C(=O)N[C@@H](CCCCN)C(=O)N[C@H](C(=O)N[C@@H](Cc1c[nH]cn1)C(=O)N[C@@H](CCC(N)=O)C(=O)N[C@@H](CCC(N)=O)C(=O)N[C@@H](CC(=O)O)C(=O)N[C@@H](Cc1ccccc1)C(=O)N[C@H](C(=O)N[C@@H](CC(N)=O)C(=O)N[C@@H](Cc1c[nH]c2ccccc12)C(=O)N[C@@H](CC(C)C)C(=O)N[C@@H](CC(C)C)C(=O)N[C@@H](C)C(=O)N[C@@H](CCC(N)=O)C(=O)N[C@@H](CCCCN)C(=O)NCC(=O)N[C@@H](CCCCNC(=O)CC[C@H](NC(=O)CCCCCCCCCCCCCCCCCCC(=O)O)C(=O)O)C(=O)N[C@@H](CCCCN)C(=O)N[C@@H](CC(N)=O)C(=O)N[C@@H](CC(=O)O)C(=O)N[C@@H](Cc1c[nH]c2ccccc12)C(=O)N[C@@H](CCCCN)C(=O)N[C@@H](Cc1c[nH]cn1)C(=O)N[C@@H](CC(N)=O)C(=O)N[C@H](C(=O)N[C@H](C(=O)N[C@@H](CCC(N)=O)C(=O)O)[C@@H](C)O)[C@@H](C)CC)C(C)C)[C@@H](C)CC` [GIP108]: on human GIPR, the “cAMP potency at human GIPR compared with human GIP(1–42)” value is recorded as “potency similar to human GIP(1–42)”. In the test with mouse GIPR, the “fold lower cAMP potency than hGIP at mouse GIPR” value worked out at 19.6 fold. For the same compound, at GIPR (24 h GIP108 pre-treatment, TEpacVV FRET sensor, CAMPER Pdx-1-CreERT2 mice, n = 4), the “GIPR desensitisation in pancreatic beta cells” value is given as “GIPR desensitisation was observed in both cell types”. Besides, on GIPR (24 h GIP108 pre-treatment, TEpacVV FRET sensor, CAMPER Som-Cre mice, n = 5), the “GIPR desensitisation in pancreatic delta cells” value is recorded as “GIPR desensitisation was observed in both cell types”. Also, the “rechallenge cAMP response after 24-hour pre-treatment” value at GIPR (islets from HFD-induced obese mice, pre-treatment and rechallenge GIP108 (1 µM), n=3) is “The same effects were observed”; on GIPR (pre-treatment 100 nM or 1 μM GIP108, rechallenge GIP108 (1 μM), dispersed islets from lean mice, n = 11–12), “significantly reduced”.

These data come from publication PMC11786100, “Chronic GIPR agonism results in pancreatic islet GIPR functional desensitisation” (Molecular Metabolism, 2025).
